Measured values as given in patent publication US7084163B2, “Heterocyclic carboxamides and their use as fungicides” (Bayer Cropscience S.A., priority 2001, dated 2006).

Legend:
[1] = system: Erisyphe graminis f. sp. tritici; test: In vivo test on Erisyphe graminis f. sp. tritici (powdery mildew of wheat), preventive spray; conditions: Triticum aestivum; dose of 500 g/ha; wheat plants (Audace variety); contaminated 24 hours after treatment; grading 7 to 14 days after contamination vs control plants; read-out: good (at least 50%) or total protection
Method: An aqueous suspension, at a concentration of 1.5%, of the active material tested is obtained by grinding it finely in a formulation of concentrated suspension type. This aqueous suspension is then diluted in water so as to obtain the desired active material concentration. Wheat plants (Audace variety) in starter cups, sown on 50/50 peat soil-pozzulana substrate and grown at 12° C., are treated at the 1-leaf stage (10 cm tall) by spraying with the aqueous suspension described above. Plants, used as controls, are treated with an aqueous solution not containing the active material. After 24 hours, the plants are contaminated by dusting them with Erisyphe graminis f. sp. tritici spores, the dusting being carried out using diseased plants.

[2] = system: Septoria tritici; test: In vivo test on Septoria tritici (leaf spot of wheat), preventive spray; conditions: Zymoseptoria tritici; dose of 500 g/ha; wheat plants (Scipion variety); contaminated 24 hours after treatment; grading 15 to 20 days after contamination vs control plants; read-out: good (at least 50%) protection
Method: (§1) An aqueous suspension, at a concentration of 1.5%, of the active material tested is obtained by grinding it finely in a formulation of concentrated suspension type. This aqueous suspension is then diluted in water so as to obtain the desired active material concentration. Wheat plants (Scipion variety) in starter cups, sown on a 50/50 peat soil-pozzolana substrate and grown at 12° C., are treated at the 1-leaf stage (10 cm tall) by spraying with the aqueous suspension described above. Plants, used as controls, are treated with an aqueous solution not containing the active material.
After 24 hours, the plants are contaminated by spraying them with an aqueous suspension of Septoria tritici spores (500,000 spores per mL). The spores are collected from a 15-day-old culture and are suspended in a nutrient solution composed of: • 1.5 g/L of gelatine • 0.5 g/L of sodium oleate • 24 g/L of PDB
The contaminated wheat plants are incubated for 72 hours at about 20° C. and at 100% relative humidity, and then for 15 days at 80% relative humidity.

[3] = system: Puccinia recondita; test: In vivo test on Puccinia recondita (wheat brown rust), preventive spray; conditions: 240 h, dose of 500 g/ha, wheat plants (Scipion variety), contaminated 24 hours after treatment, grading 10 days after contamination vs control plants, read-out: good (at least 50%) protection
Method: as §1, with “type,” for “type.”
After 24 hours, the plants are contaminated by spraying them with an aqueous suspension of Puccinia recondita spores (150,000 spores per mL). The contaminated wheat plants are incubated for 24 hours at about 20° C. and at 100% relative humidity, and then for 10 days at 70% relative humidity.
Grading is carried out 10 days after the contamination, in comparison with the control plants. Under these conditions, good (at least 50%) protection is observed, at a dose of 500 g/ha, with the following compounds described as example: 6, 10, 11, 12, 13, 14, 15, 28, 29, 30, 31, 34, 37, 42, 45, 46, 50, 51, 52, 62, 72.

[4] = system: Drechslera teres; test: In vivo test on Drechslera teres (barley net blotch), preventive spray; conditions: Pyrenophora teres, 288 h; dose of 500 g/ha; barley plants (Express variety); contaminated 24 hours after treatment; grading 12 days after contamination vs control plants; read-out: good (at least 50%) protection
Method: as §1, with “the active material. tested is” for “the active material tested is”, “material concentration. Barley plants (Express” for “material concentration. Wheat plants (Scipion”, “Barley plants (Express variety) in” for “Wheat plants (Scipion variety) in”
After 24 hours, the plants are contaminated by spraying them with an aqueous suspension of Dreschslera teres spores (12,000 spores per mL). The spores are collected from a 12-day-old culture. The contaminated wheat plants are incubated for 24 hours at about 20° C. and at 100% relative humidity, and then for 12 days at 80% relative humidity.
Grading is carried out 12 days after the contamination, in comparison with the control plants. Under these conditions, good (at least 50%) protection is observed, at a dose of 500 g/ha, with the compounds described as example: 9, 13, 14, 15, 18, 20, 21, 22, 24, 26, 27, 30, 31, 32, 33, 34, 35, 36, 37, 41, 43, 45, 47, 49, 62, 69, 70, 72.

[5] = system: Rhynchosporium secalis; test: In vivo test on Rhynchosporium secalis (barley leaf scald), preventive spray; conditions: dose of 500 g/ha; barley plants (Express or Barrack variety); contaminated 24 hours after treatment; grading 12/14 days after contamination vs control plants
Method: as §1, with “Barley” for “Wheat”, “(Express or Barrack” for “(Scipion”
After 24 hours, the plants are contaminated by spraying them with an aqueous suspension of Rhynchosporium secalis spores (800,000 spores per mL). The contaminated wheat plants are incubated for 48 hours at about 20° C. and at 100% relative humidity, and then for 12/14 days at 80% relative humidity.
Grading is carried out 12/14 days after the contamination, in comparison with the control plants. Under these conditions, good (at least 50%) protection is observed, at a dose of 500 g/ha, with the following compound described as example: 32.

melting point | Compound | pest or weed control at 500 g/ha [1] | pest or weed control at 500 g/ha [2] | pest or weed control at 500 g/ha [3] | pest or weed control at 500 g/ha [4] | good (at least 50%) protection [5]
203 to 204 °C | CCCCOc1ccc(NC(=O)c2occc(=O)c2O)cc1 [compound 59, N-(4-Butyloxy-phenyl)-2-(3-hydroxy-γ-pyranone)-carboxamide] | ≥ 50% | ≥ 50% |  |  | 
 | CCOC(=O)c1c(OC)c(C(=O)Nc2ccc(Oc3ccc(C(F)(F)F)cc3)cc2)cn1C [compound 12, 1-methyl-2-ethoxycarbonyl-3-methoxy-1H-N-para-[4-(trifluoromethyl)phenoxy]phenyl-pyrrole-4-carboxamide] | ≥ 50% |  | ≥ 50% |  | 
 | Nc1nccc(C(=O)Nc2ccc(Oc3ccc(C(F)(F)F)cc3)cc2)c1O [compound 19, [4-(Trifluoromethyl)phenoxy]anilino-(2-amino-3-hydroxy)pyridyl-4-carboxamide] | ≥ 50% |  |  |  | 
 | COC(=O)c1onc(C(=O)Nc2ccc(Oc3ccc(C(F)(F)F)cc3)cc2)c1OC [compound 39] |  | ≥ 50% |  |  | 
 | CCCCOc1ccc(NC(=O)c2c(O)c(N)cn2C)cc1 [compound 9, 1-Methyl-4-amino-3-hydroxy-1H-N-(4-butoxy-phenyl)pyrrole-2-carboxamide] |  | ≥ 50% |  | ≥ 50% | 
 | CC(C)N1CC(C(=O)Nc2ccc(Oc3ccc(C(F)(F)F)cc3)cc2)=C(O)C1=O [compound 73, N-(4-(4-Trifluormethyl)phenoxy)phenyl-[(1-isopropyl-4-hydroxy-5-dioxo-2,5-dihydro-1H)-pyrrol]-3-carboxamide] | ≥ 50% |  |  |  | 
 | Cc1nc(C)c(-n2cccc2)c(O)c1C(=O)Nc1ccc(OC(F)(F)C(F)F)cc1 [compound 55, 2,6-dimethyl-5-pyrrol-1-yl-4-hydroxy-N-para-(1,1,2,2 tetrafluoroethoxy)phenyl nicotinamide] | ≥ 50% |  |  |  | 
 | COc1c(C(=O)Nc2ccc(Oc3ccc(C(F)(F)F)cc3)cc2)cn(C)c1C(=O)O [compound 13, 1-methyl-2-hydroxycarbonyl-3-methoxy-1H-N-para-[4-(trifluoromethyl)phyenoxy]phenyl-pyrrole-4-carboxamide] | ≥ 50% |  | ≥ 50% | ≥ 50% | 
 | Cn1nc(C(=O)Nc2ccc(Oc3cccc(C(F)(F)F)c3)cc2)c(O)c1N [compound 44, 1-Methyl-4-hydroxy-5-amino-N-para-[3-(trifluoromethyl)phenoxy]phenyl pyrazole-3-carboxamide] | ≥ 50% |  |  |  | 
 | CCOC(=O)c1c(O)c(C(=O)Nc2ccc(Oc3ccc(C(F)(F)F)cc3)cc2)cn1C [compound 15, 1-methyl-2-ethoxycarbonyl-3-hydroxy-1H-N-para-[4-(trifluoromethyl)phenoxy]phenyl-pyrrole-4-carboxamide] | ≥ 50% | ≥ 50% | ≥ 50% | ≥ 50% | 
 | CC(C)N1CC(C(=O)Nc2ccc(Oc3ccccc3)cc2)=C(O)C1=O [compound 72, N-4-(phenoxy)phenyl-(1-N-isopropyl-4-hydroxy-5-dioxo-2,5-dihydro-1H)-pyrrol-3-carboxamide] |  | ≥ 50% | ≥ 50% | ≥ 50% | 
 | COc1c(C(=O)Nc2ccc(Oc3ccc(C(F)(F)F)cc3)cc2)cn(C)c1N [compound 14, 1-methyl-2-amino-3-methoxy-1H-N-para-[4-(trifluoromethyl)phenoxy]phenyl-pyrrole-4-carboxamide] | ≥ 50% |  | ≥ 50% | ≥ 50% | 
 | COC(=O)Nc1noc(C(=O)Nc2ccc(Oc3ccc(C(F)(F)F)cc3)cc2)c1OC [compound 28] | ≥ 50% |  | ≥ 50% |  | 
 | C=CCOC(=O)Nc1cn(C)c(C(=O)Nc2ccc(Oc3ccc(C(F)(F)F)cc3)cc2)c1OC [compound 5, 1-Methyl-4-[(allyloxycarbonyl)amino]-3-methoxy-1H—N-para-[4-(trifluoromethyl)phenoxy]phenyl-pyrrole-2-carboxamide] | ≥ 50% |  |  |  | 
 | Nc1noc(C(=O)Nc2ccc(Oc3ccc(C(F)(F)F)cc3)cc2)c1O [compound 32, 3-Amino4-hydroxy-N-para-[4-(trifluoromethyl)phenoxy]phenylisoxazole-5-carboxamide] | ≥ 50% | ≥ 50% |  | ≥ 50% | at least 50%
 | COC(=O)c1cncc(C(=O)Nc2ccc(Oc3ccc(C(F)(F)F)c(Cl)c3)cc2)c1OC [compound 49, 5-methoxycarbonyl-4-methoxy-N-para-[3-chloro-4-(trifluoromethyl)phenoxy]phenyl nicotinamide] | ≥ 50% | ≥ 50% |  | ≥ 50% | 
 | COc1c(C(N)=O)cncc1C(=O)Nc1ccc(Oc2ccc(C(F)(F)F)c(Cl)c2)cc1 [compound 50, 5-aminocarbonyl-4-methoxy-N-para-[3-chloro-4-(trifluoromethyl)phenoxy]phenyl nicotinamide] |  | ≥ 50% | ≥ 50% |  | 
 | Nc1cncc(C(=O)Nc2ccc(Oc3cccc(C(F)(F)F)c3)cc2)c1O [compound 45, 5-amino-4-hydroxy-N-para-[3-(trifluoromethyl)phenoxy]phenyl nicotinamide] | ≥ 50% | ≥ 50% | ≥ 50% | ≥ 50% | 
 | Nc1cc(C(=O)Nc2ccc(Oc3ccc(C(F)(F)F)cc3)cc2)ns1 [compound 42, 5-Amino-N-para-[4-(trifluoromethyl)phenoxy]phenyl-isothiazole-3-carboxamide] | ≥ 50% | ≥ 50% | ≥ 50% |  | 
